According to patent US11207291B2, “Antimicrobial compositions comprising cannabinoids and methods of using the same” (Graphium Biosciences, Inc., priority 2017, dated 2021):
≈ marks a conversion by molar mass, not a printed value.

Key:
[1] = system: S. aureus ATCC 29213; assay: MIC/MBC testing (Example 5); assay type: cell-based; conditions: Staphylococcus aureus, ATCC29213; Example 5; read-out: MIC
[2] = system: S. aureus MMX 757; assay: MIC/MBC testing (Example 5); assay type: cell-based; conditions: Staphylococcus aureus, MMX757; Example 5; read-out: MIC
[3] = system: E. faecalis ATCC 29212; assay: MIC/MBC testing (Example 5); assay type: cell-based; conditions: Enterococcus faecalis, ATCC29212; Example 5; read-out: MIC
[4] = system: E. faecalis MMX 848; assay: MIC/MBC testing (Example 5); assay type: cell-based; conditions: Enterococcus faecalis, MMX848; Example 5; read-out: MIC
[5] = system: S. pneumoniae ATCC 49619; assay: MIC/MBC testing (Example 5); assay type: cell-based; conditions: Streptococcus pneumoniae, ATCC49619; Example 5; read-out: MIC
[6] = system: S. pyogenes MMX 404; assay: MIC/MBC testing (Example 5); assay type: cell-based; conditions: Streptococcus pyogenes, MMX404; Example 5; read-out: MIC
[7] = system: E. coli ATCC 25922; assay: MIC/MBC testing (Example 5); assay type: cell-based
[8] = system: Staphylococcus aureus (MSSA); assay: Broth microdilution MIC, aerobic bacteria (Example 1); assay type: cell-based; conditions: isolate MMX 100 (ATCC 29213)
[9] = system: Staphylococcus aureus (MRSA); assay: microbe, parasite or virus in culture; assay type: cell-based; conditions: Example 1; isolate MMX 757
[10] = system: Enterococcus faecalis (VSE); assay: Broth microdilution MIC, aerobic bacteria (Example 1); assay type: cell-based; conditions: isolate MMX 101 (ATCC 29212)
[11] = system: Enterococcus faecalis (VRE); assay: microbe, parasite or virus in culture; assay type: cell-based; conditions: Example 1; isolate MMX 848
[12] = system: Streptococcus pneumoniae; assay: Broth microdilution MIC, aerobic bacteria (Example 1); assay type: cell-based; conditions: Example 1; isolate MMX 1195 (ATCC 49619)
[13] = system: Streptococcus pyogenes; assay: as above; assay type: cell-based; conditions: isolate MMX 404
[14] = system: Escherichia coli; assay: as above; assay type: cell-based; conditions: isolate MMX 102 (ATCC 25922)
[15] = system: Klebsiella pneumoniae (KPC-2); assay type: cell-based; conditions: Example 1; isolate MMX 4683
[16] = system: Pseudomonas aeruginosa; assay: Broth microdilution MIC, aerobic bacteria (Example 1); assay type: cell-based; conditions: Example 1; isolate MMX 1380
[17] = system: Acinetobacter baumannii; assay: as above; assay type: cell-based; conditions: Example 1; isolate MMX 1630
[18] = system: Clostridium difficile; assay: Broth microdilution MIC, anaerobic bacteria (Example 1); assay type: cell-based; conditions: Example 1
[19] = system: Lactobacillus crispatus; assay: as above; assay type: cell-based; conditions: Example 1; isolate MMX 4147
[20] = system: Lactobacillus jensenii; assay: as above; assay type: cell-based; conditions: Example 1; isolate MMX 4149
[21] = system: Bifidobacterium bifidum; assay: as above; assay type: cell-based; conditions: Example 1; isolate MMX 3965
[22] = system: Bifidobacterium longum; assay: as above; assay type: cell-based; conditions: Example 1; isolate MMX 3968
[23] = system: Bacteroides fragilis; assay: as above; assay type: cell-based; conditions: Example 1; isolate MMX 123 (ATCC 5285)
[24] = system: Candida parapsilosis; assay: Broth microdilution MIC, yeast and fungi (Example 1); assay type: cell-based
[25] = system: Aspergillus fumigatus; assay: as above; assay type: cell-based; conditions: isolate MMX 5280 (ATCC MYA-3626)
[26] = Compound precipitation in uninoculated solubility controls (Example 1); assay type: physicochemical; parameters: key to precipitation observed (type): NA: not applicable (no precipitation observed); TRP: trace precipitate; DCP: distinct precipitate
Description: Plates were stacked 3-4 high, covered with a lid on the top plate, placed in plastic bags, and incubated at 35° C. for approximately 16 to 20 hr (aerobes), 20 to 24 hr (Streptococcus), and 24 and 48 hr (fungi). Anaerobe plates were stacked, covered with a lid on the top plate, placed in a BD GasPak EZ Anaerobe Container System and incubated at 35° C. for 48 hr. Following incubation, the microplates were removed from the incubator and viewed from the bottom using a plate viewer. […] The MIC was read and recorded as the lowest concentration of drug that inhibited visible growth of the organism.

[27] = Bioavailability assay: VB110 and CBD decoupling analysis of intestinal contents (Example 2); assay type: in vivo; conditions: mice, oral gavage 120 mg/kg VB110
Description: In order to investigate the effectiveness of glycosylation to effect site-specific drug delivery, VB110 was administered to three mice by oral gavage and the animals sacrificed at 30, 60, and 90 minutes. Eight-week old male Swiss mice were fasted for 12 hours prior to administration of 120 mg/kg VB110 in 10% Ethanol USP, 10% Propylene Glycol USP, 0.05% Sodium Deoxycholate USP, 79.95% Saline USP. Following termination and tissue harvest, the intestinal contents were then extracted and analyzed by C18 reverse phase HPLC. […] This decoupling of VB110 is consistent with the large intestinal decoupling seen for sennoside beta-glycosides and is the result of secreted beta-glycosidases from the large intestinal microflora.

With `C[C@@H](O)[C@H]1C(=O)N2C(C(=O)O)=C(SCCN=CN)C[C@H]12` [Imipenem] the MIC [1] was 0.015 µg/mL (≈ 0.0501 µM), the MIC [2] was 4 µg/mL (≈ 13.4 µM) and the MIC [3] was 0.5 µg/mL (≈ 1.67 µM). For the same compound, the MIC [4] was 1 µg/mL (≈ 3.34 µM), the MIC [5] was 0.015 µg/mL (≈ 0.0501 µM) and the MIC [6] was at most 0.008 µg/mL. The MBC ([7]; Escherichia coli, ATCC25922, Example 5, quality control MBC test) was 0.12 µg/mL (≈ 0.401 µM), the MIC ([7]; Escherichia coli, ATCC25922, Example 5, read-out: MIC) was 0.12 µg/mL (≈ 0.401 µM) and the “MBC:MIC” value ([7]; ratios of 1-4 are indicative of bactericidal activity) was 1.

For `C=C(C)[C@@H]1CCC(C)=C[C@H]1c1c(O[C@@H]2O[C@H](CO)[C@@H](O)[C@H](O)[C@H]2O)cc(CCCCC)cc1O[C@@H]1O[C@H](CO)[C@@H](O)[C@H](O)[C@H]1O` [VB110], the MIC [8] was over 256 µg/mL, the MIC [9] was over 256 µg/mL and the MIC [10] was over 256 µg/mL. The MIC [11] was over 256 µg/mL, the MIC [12] was over 256 µg/mL and the MIC [13] was over 256 µg/mL. It also gave an MIC [14] of over 256 µg/mL, an MIC [15] of over 256 µg/mL and an MIC [16] of over 256 µg/mL. The MIC [17] was over 256 µg/mL, the MIC ([18]; isolate MMX 4381 (ATCC 00057)) was over 256 µg/mL and the MIC ([18]; isolate MMX 8330) was over 256 µg/mL. For the same compound, the MIC ([18]; isolate MMX 8333) was over 256 µg/mL, the MIC [19] was over 256 µg/mL and the MIC [20] was over 256 µg/mL. For the same compound, the MIC [21] was over 256 µg/mL, the MIC [22] was over 256 µg/mL and the MIC [23] was over 256 µg/mL. The “inhibition of growth relative to the growth control” value ([24]; 24 and 48 hr, concentrations >16 μg/mL) was 50%, the “MIC at 24 hr” value ([24]; Example 1, 24 hr, isolate MMX 2323 (ATCC 22019)) was >256^2, μg/mL and the “MIC at 48 hr” value ([24]; Example 1, 48 hr, isolate MMX 2323 (ATCC 22019)) was >256^2 μg/mL. The “MIC at 24 hr” value ([25]; 24 hr) was >256, μg/mL, the “MIC at 48 hr” value ([25]; 48 hr) was over 256 µg/mL and the “precipitation observed (type)” value ([26]; MHB II) was “none”. For the same compound, the “lowest concentration at which precipitation was observed” value ([26]; RPMI) was 32 µg/mL, the “precipitation observed (type)” value ([26]; RPMI) was “TRP” and the “small intestinal contents (HPLC)” value ([27]; 30, 60, and 90 minutes) was “intact VB110, but no decoupled CBD”. For the same compound, the “large intestinal contents (HPLC)” value ([27]; 60 and 90 minute time points) was “contained both VB110 and CBD”.
